Results: patent publication US20090306149A1, “USE OF BIARYLCARBOXAMIES IN THE TREATMENT OF HEDGEHOG PATHWAY-RELATED DISORDERS” (priority 2006, published 2009)
Where two headings read alike, the source gives them in different places.

Columns and labels:
Smoothened = Smoothened (Homo sapiens, UniProt Q99835); experiment: Smo binding assay, displacement of a small molecule agonist of Smoothened, filter binding format
Text: A Smo binding assay was developed using radio-labeled smoothened agonist for compound competition.
Table 1, infra; lists the IC50 for displacement of a small molecule agonist of Smoothened determined in a filter binding format.

[1] = tested on: gli-luciferase activity (Hh pathway) in TMHh12 cells; experiment: "IC50 shift" gli-luciferase reporter assay in TMHh12 cells with a small molecule Smo agonist; assay type: cell-based, mouse
Protocol: TM3 cells (mouse) transfected with a new proprietary reporter construct (pTA-8xGli-Luc). The pTA-8xGli-Luc reporter produces approx. 4 fold more luciferase activity than classical 8xGli-LUC. A highly responsive stable clone has been selected (TMHh12) with >10-fold signal/noise ratio and <10% CV in 384 well format.
“IC50 shift” assays in TMHh12 cells. IC50 for antagonism of gli-luciferase activity was tested in the presence of increasing concentrations of a small molecule agonist which binds to Smo with 1 nM affinity and activates the Hh pathway.
Table 1 lists the IC50 of antagonists determined in the presence of different (1 nM and 25 nM) concentrations of a small agonist of Smoothened.

[2] = Mus musculus, TMHh12, TMHh12 cells, 1 nM small molecule Smo agonist, read-out: Gli_luc (1 nM Smo agonist) IC50
[3] = Mus musculus, TMHh12, TMHh12 cells, 25 nM small molecule Smo agonist, read-out: Gli_luc (25 nM Smo agonist) IC50

Smoothened, sequence (Q99835 28-787): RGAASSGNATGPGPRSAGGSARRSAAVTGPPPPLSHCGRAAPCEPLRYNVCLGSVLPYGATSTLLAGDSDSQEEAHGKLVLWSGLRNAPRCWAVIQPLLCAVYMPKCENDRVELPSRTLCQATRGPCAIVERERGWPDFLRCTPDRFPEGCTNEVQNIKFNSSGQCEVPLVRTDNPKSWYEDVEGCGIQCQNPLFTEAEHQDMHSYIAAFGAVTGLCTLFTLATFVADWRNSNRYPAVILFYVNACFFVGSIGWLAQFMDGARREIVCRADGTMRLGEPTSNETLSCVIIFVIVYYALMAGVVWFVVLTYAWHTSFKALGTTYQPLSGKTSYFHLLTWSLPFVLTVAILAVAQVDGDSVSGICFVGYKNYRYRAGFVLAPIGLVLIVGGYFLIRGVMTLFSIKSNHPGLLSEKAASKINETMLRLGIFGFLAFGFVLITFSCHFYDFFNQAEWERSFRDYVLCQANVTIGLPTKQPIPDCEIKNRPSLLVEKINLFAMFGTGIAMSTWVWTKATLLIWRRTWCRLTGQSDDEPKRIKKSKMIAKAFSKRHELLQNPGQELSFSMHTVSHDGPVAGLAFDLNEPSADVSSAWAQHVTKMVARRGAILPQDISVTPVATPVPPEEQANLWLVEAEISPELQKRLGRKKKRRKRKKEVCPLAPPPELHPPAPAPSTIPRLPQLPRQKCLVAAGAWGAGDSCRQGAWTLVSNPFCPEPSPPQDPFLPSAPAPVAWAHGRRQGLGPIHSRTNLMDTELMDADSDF

| SMILES | IC50 (Smoothened) [nM] | IC50 [1, 2] [nM] | IC50 [1, 3] [nM] | IC50 ([1]; TMHh12 cells, 1 nM small molecule Smo agonist, read-out: Gli_luc (1 nM Smo agonist) IC50) [nM] | IC50 ([1]; TMHh12 cells, 25 nM small molecule Smo agonist, read-out: Gli_luc (25 nM Smo agonist) IC50) [nM] |
| --- | --- | --- | --- | --- | --- |
| Cc1csc(CN[C@H]2Cc3ccc(NC(=O)c4cccc(C)c4-c4ccc(C(F)(F)F)cc4)cc3C2)n1 [Example 5, 6-Methyl-4′-trifluoromethyl-biphenyl-2-carboxylic acid {(S)-2-[(4-methyl-thiazol-2-ylmethyl)-amino]-indan-5-yl}-amide] | 3 | < 5 | 139 | – | – |
| Cc1cccc(C(=O)Nc2ccc3c(c2)C[C@@H](NCc2scnc2C)C3)c1-c1ccc(C(F)(F)F)cc1 [Example 10] | 137 | 290 | 1340 | – | – |
| Cc1cccc(C(=O)Nc2ccc3c(c2)C[C@@H](NCc2cncn2C)C3)c1-c1ccc(C(F)(F)F)cc1 [Example 16] | – | 592 | 3700 | – | – |
| Cc1cccc(C(=O)Nc2ccc3c(c2)C[C@@H](NCc2ncc[nH]2)C3)c1-c1ccc(C(F)(F)F)cc1 [Example 17] | – | 1370 | 15500 | – | – |
| Cc1cccc(C(=O)Nc2ccc3c(c2)C[C@@H](NCc2nccn2C)C3)c1-c1ccc(C(F)(F)F)cc1 [Example 18] | – | 39 | 876 | – | – |
| Cc1cccc(C(=O)Nc2ccc3c(c2)C[C@@H](NCc2ccc4c(c2)OC(F)(F)O4)C3)c1-c1ccc(C(F)(F)F)cc1 [Example 25] | 90 | 409 | 2500 | – | – |
| Cc1cccc(C(=O)Nc2ccc3c(c2)C[C@@H](NCC2CCOC2)C3)c1-c1ccc(C(F)(F)F)cc1 (stereo partly shown) [Example 33] | – | 4530 | 16400 | – | – |
| Cc1cc(C)c(-c2ccc(C(F)(F)F)cc2)c(C(=O)Nc2ccc3c(c2)CC(NCc2ccsc2)C3)c1 (stereo not shown) [Example 35] | 208 | – | – | – | – |
| O=C(Nc1ccc2c(c1)CC(NCc1ccccn1)C2)c1cccc(C(F)(F)F)c1-c1ccc(C(F)(F)F)cc1 (stereo not shown) [Example 37] | – | 2980 | 11000 | – | – |
| O=C(Nc1ccc2c(c1)CCC2NCc1cccs1)c1ccccc1-c1ccc(C(F)(F)F)cc1 (stereo not shown) [Example 39] | – | 686 | 3720 | – | – |
| COC(=O)C1(CNC2Cc3ccc(NC(=O)c4ccccc4-c4ccc(C(F)(F)F)cc4)cc3C2)CCCC1 (stereo not shown) [Example 42] | – | 2580 | – | – | – |
| O=C(Nc1ccc2c(c1)C[C@@H](NCc1ccccn1)C2)c1cccc(C(F)(F)F)c1-c1ccc(C(F)(F)F)cc1 [Example 46] | – | 831 | 3850 | – | – |
| O=C(Nc1ccc2c(c1)CC(NCc1ccccn1)C2)c1cccc(C(F)(F)F)c1-c1ccc(C(F)(F)F)cc1 (stereo not shown) [Example 47] | – | – | – | 1570 | 5960 |
| Cc1cccc(C(=O)Nc2ccc3c(c2)CC(NCc2nccs2)C3)c1-c1ccc(C(F)(F)F)cc1 (stereo not shown) [Example 72] | – | 38 | 667 | – | – |
| Cc1cccc(C(=O)Nc2ccc3c(c2)CC(NC(=O)c2ccccc2)C3)c1-c1ccc(C(F)(F)F)cc1 (stereo not shown) [Example 76] | – | 772 | 1250 | – | – |
| CN(C)CC(=O)NC1Cc2ccc(NC(=O)c3ccccc3-c3ccc(C(F)(F)F)cc3)cc2C1 (stereo not shown) [Example 77] | – | 1410 | 12400 | – | – |
| O=C(COc1ccccc1)NC1Cc2ccc(NC(=O)c3ccccc3-c3ccc(C(F)(F)F)cc3)cc2C1 (stereo not shown) [Example 78] | – | 1890 | – | – | – |
| COc1cccc(C(=O)Nc2ccc3c(c2)CC(NC(=O)c2ccccc2)C3)c1-c1ccc(C(F)(F)F)cc1 (stereo not shown) [Example 79] | – | 1330 | – | – | – |

| SMILES | IC50 (Smoothened) [nM] | IC50 [1, 2] [nM] | IC50 [1, 3] [nM] | IC50 ([1]; TMHh12 cells, 1 nM small molecule Smo agonist, read-out: Gli_luc (1 nM Smo agonist) IC50) [nM] | IC50 ([1]; TMHh12 cells, 25 nM small molecule Smo agonist, read-out: Gli_luc (25 nM Smo agonist) IC50) [nM] |
| --- | --- | --- | --- | --- | --- |
| Cc1cccc(C(=O)Nc2ccc3c(c2)C[C@H](NC(=O)c2ccno2)C3)c1-c1ccc(C(F)(F)F)cc1 [Example 80] | – | 3270 | – | – | – |
| CCOC(=O)NC1Cc2ccc(NC(=O)c3ccccc3-c3ccc(C(F)(F)F)cc3)cc2C1 (stereo not shown) [Example 81] | – | 1330 | – | – | – |
| CCOC(=O)N[C@H]1Cc2ccc(NC(=O)c3cccc(C)c3-c3ccc(C(F)(F)F)cc3)cc2C1 [Example 82] | – | 1510 | 9030 | – | – |
| CCOC(=O)NC1Cc2ccc(NC(=O)c3cccc(OC)c3-c3ccc(C(F)(F)F)cc3)cc2C1 (stereo not shown) [Example 83] | – | 715 | 9730 | – | – |
| Cc1cccc(C(=O)Nc2ccc3c(c2)CC(NS(=O)(=O)c2ccc(Cl)s2)C3)c1-c1ccc(C(F)(F)F)cc1 (stereo not shown) [Example 85] | 12 | – | – | – | – |
| CCCCS(=O)(=O)NC1Cc2ccc(NC(=O)c3cccc(C)c3-c3ccc(C(F)(F)F)cc3)cc2C1 (stereo not shown) [Example 86] | 265 | – | – | – | – |
| O=C(Nc1ccc2c(c1)CC(NS(=O)(=O)NC1CCCCC1)C2)c1ccccc1-c1ccc(C(F)(F)F)cc1 (stereo not shown) [Example 87] | – | 2070 | 2580 | – | – |
| O=C(Nc1ccc2c(c1)C[C@H](NS(=O)(=O)c1ccccc1)C2)c1ccccc1-c1ccc(C(F)(F)F)cc1 [Example 89] | – | 202 | – | – | – |
| O=C(Nc1ccc2c(c1)CC(NS(=O)(=O)c1cccs1)C2)c1ccc(F)cc1-c1ccc(C(F)(F)F)cc1 (stereo not shown) [Example 90] | – | 5440 | – | – | – |
| O=C(Nc1ccc2c(c1)CC(NS(=O)(=O)c1cccs1)C2)c1cccc(F)c1-c1ccc(C(F)(F)F)cc1 (stereo not shown) [Example 91] | – | 59 | 16300 | – | – |
| CCCS(=O)(=O)NC1Cc2ccc(NC(=O)c3cccc(C)c3-c3ccc(C(F)(F)F)cc3)cc2C1 (stereo not shown) [Example 93] | – | 3390 | – | – | – |
| Cc1cccc(C(=O)Nc2ccc3c(c2)CC(NS(=O)(=O)c2cccs2)C3)c1-c1ccc(F)cc1 (stereo not shown) [Example 94] | – | 6630 | – | – | – |
| Cc1cccc(C(=O)Nc2ccc3c(c2)CC(NS(=O)(=O)c2cccs2)C3)c1-c1ccc(C(F)(F)F)cc1 (stereo not shown) [Example 95] | – | 1420 | – | – | – |
| O=C(Nc1ccc2c(c1)CC(NS(=O)(=O)c1ccccc1)C2)c1ccccc1-c1ccc(Cl)cc1 (stereo not shown) [Example 96] | – | 1480 | – | – | – |
| O=C(Nc1ccc2c(c1)CC(NS(=O)(=O)c1cccs1)C2)c1c(F)cccc1-c1ccc(C(F)(F)F)cc1 (stereo not shown) [Example 97] | – | 1360 | – | – | – |
| Cc1cccc(C(=O)Nc2ccc3c(c2)CC(NS(=O)(=O)c2ccc(Cl)cc2)C3)c1-c1ccc(C(F)(F)F)cc1 (stereo not shown) [Example 98] | – | 324 | 24400 | – | – |
| O=C(Nc1ccc2c(c1)CC(NS(=O)(=O)c1ccc(F)cc1)C2)c1ccccc1-c1ccc(C(F)(F)F)cc1 (stereo not shown) [Example 99] | – | 1050 | – | – | – |
| Cc1cccc(C(=O)Nc2ccc3c(c2)C[C@@H](NS(=O)(=O)c2ccccn2)C3)c1-c1ccc(C(F)(F)F)cc1 [Example 101] | – | 904 | 14100 | – | – |

The next lines start with the values.

| IC50 (Smoothened) [nM] | IC50 [1, 2] [nM] | IC50 [1, 3] [nM] | IC50 ([1]; TMHh12 cells, 1 nM small molecule Smo agonist, read-out: Gli_luc (1 nM Smo agonist) IC50) [nM] | IC50 ([1]; TMHh12 cells, 25 nM small molecule Smo agonist, read-out: Gli_luc (25 nM Smo agonist) IC50) [nM] | SMILES |
| --- | --- | --- | --- | --- | --- |
| 14 | < 5 | 141 | – | – | Cc1cccc(C(=O)Nc2ccc3c(c2)C[C@@H](NCc2cccs2)C3)c1-c1ccc(C(F)(F)F)cc1 [Example 7] |
| – | 39 | 876 | – | – | Cc1nc(CN[C@H]2Cc3ccc(NC(=O)c4cccc(C)c4-c4ccc(C(F)(F)F)cc4)cc3C2)cs1 [Example 9] |
| 14 | < 5 | 371 | – | – | Cc1cccc(C(=O)Nc2ccc3c(c2)C[C@@H](NCc2ccco2)C3)c1-c1ccc(C(F)(F)F)cc1 [Example 11] |
| 4 | < 5 | 141 | – | – | Cc1ccc(CN[C@H]2Cc3ccc(NC(=O)c4cccc(C)c4-c4ccc(C(F)(F)F)cc4)cc3C2)o1 [Example 12] |
| 1 | < 5 | 37 | – | – | Cc1cccc(C(=O)Nc2ccc3c(c2)C[C@@H](NCc2ccc(Cl)o2)C3)c1-c1ccc(C(F)(F)F)cc1 [Example 14] |
| 18 | < 5 | 479 | – | – | Cc1cccc(C(=O)Nc2ccc3c(c2)C[C@@H](NCc2cccn2C)C3)c1-c1ccc(C(F)(F)F)cc1 [Example 15] |
| 151 | 94 | 964 | – | – | Cc1cccc(C(=O)Nc2ccc3c(c2)C[C@@H](NCc2ccncc2)C3)c1-c1ccc(C(F)(F)F)cc1 [Example 20] |
| 1 | 254 | 646 | – | – | COc1ccc(OC)c(CN[C@H]2Cc3ccc(NC(=O)c4cccc(C)c4-c4ccc(C(F)(F)F)cc4)cc3C2)c1 [Example 21] |
| 444 | 456 | 3260 | – | – | CC(=O)Nc1ccc(CN[C@H]2Cc3ccc(NC(=O)c4cccc(C)c4-c4ccc(C(F)(F)F)cc4)cc3C2)cc1 [Example 22] |
| 93 | 349 | 3040 | – | – | COc1ccc(CN[C@H]2Cc3ccc(NC(=O)c4cccc(C)c4-c4ccc(C(F)(F)F)cc4)cc3C2)cc1 [Example 23] |
| 8 | 35 | 458 | – | – | Cc1cccc(C(=O)Nc2ccc3c(c2)C[C@@H](NCc2ccc(Cl)s2)C3)c1-c1ccc(C(F)(F)F)cc1 [Example 26] |
| – | 12 | 605 | – | – | Cc1cccc(C(=O)Nc2ccc3c(c2)C[C@H](NCc2ccccc2)C3)c1-c1ccc(C(F)(F)F)cc1 [Example 27] |
| 2 | 12 | 481 | – | – | Cc1cccc(C(=O)Nc2ccc3c(c2)C[C@@H](NCc2ccc(-n4ccnc4)cc2)C3)c1-c1ccc(C(F)(F)F)cc1 [Example 28] |
| 490 | 1670 | 4920 | – | – | Cc1cccc(C(=O)Nc2ccc3c(c2)C[C@@H](NCc2cnc4ccccc4c2)C3)c1-c1ccc(C(F)(F)F)cc1 [Example 29] |
| – | 40 | 598 | – | – | Cc1cccc(C(=O)Nc2ccc3c(c2)CC(NCc2cccs2)C3)c1-c1ccc(C(F)(F)F)cc1 (stereo not shown) [Example 52] |
| – | 91 | 995 | – | – | Cc1cccc(C(=O)Nc2ccc3c(c2)CC(NCc2ccccc2)C3)c1-c1ccc(C(F)(F)F)cc1 (stereo not shown) [Example 55] |
